Entries after “also recorded” stand apart in the source; their conditions may differ. Positions of bridges follow the written chain, without caps; N, C: chain ends. Non-standard residues stand in square brackets, D forms with d. No end group written: not given here.

The subject of assay [1] is cells from the normal specimen of the same bladder. The assay can be described thus: Whole cell bead binding assay, cells from normal specimen of the same bladder. As to conditions: beads coated with PLZ4; same cystectomy specimen. Also noted: species or system human. The protocol: The beads were washed extensively with double-distilled water and phosphate-buffered saline (PBS) before screening. Bladder cancer cells and normal urothelial cells were detached from culture dishes with trypsin/EDTA or a Detach kit (PromoCell, Heidelberg, Germany), washed with their corresponding culture medium, resuspended at 10^6 cells/ml and incubated with OBOC beads in Petri dishes in a humidified CO2 incubator at 37° C. with shaking (60 rpm). Beads bound by cells appeared as rosettes with a central bead covered by a layer(s) of cells under a microscope. The positive beads were picked with a pipette under inverted microscope, treated with Quanidine HCl (8M, 20 min) to remove cells and proteins on beads surface, and underwent a second round of incubation with the same cells to confirm the binding. Only those beads with cell bindings at both rounds were sent for the amino acid sequencing as previously described (Peng, et al., Nat Chem Biol, (2006) 2: 381-389).
The cell surface molecules on established cell lines in culture may not be the same as those molecules on primary bladder cancer cells. It was assessed if PLZ4 could bind to bladder cancer cells from patients. Beads coated with PLZ4 could bind to primary bladder cancer cells from patients (FIGS. 3A and B). […] In one patient, both normal tissue and bladder cancer tissue from the same cystectomy specimen were available.

A further assay deals with K9TCC-PU. Nature of the assay: Binding affinity by PLZ4-biotin / avidin-HRP on fixed K9TCC-PU cells. Also on record: species or system canine. The following applies: restated in b239 without cell line, read-out: Kd50. Here is the method: FIG. 8A-B. Binding affinity and biological effects of PLZ4 against canine TCC cell lines. A. Binding affinity of PLZ4 against K9TCC-PU and K9TCC-PU-In. Twenty thousands of K9TCC-PU and K9TCC-PU-In were seeded in 96 well plates. After culture for 24 hours, cells were fixed and incubated with different concentrations of PLZ4-biotin for 1.5 hours following avidin-HRP for another 1 hour. Cells treated with avidin-HRP only were served as background control. The color was developed using TMB substrate and read by ELISA readers. The experiment was performed in triplicates and repeated for 3 times. The mean value of the 3 experiments were shown. B. Biological effects of PLZ4 on canine TCC cell lines. Ten thousand K9TCC-PU-In and K9TCC-PU cells were seeded in the 96 well plates and treated with increasing concentrations of PLZ4 or PBS for 2 days. The cell proliferation assay was assessed by WST-8 assay per manufacturer's protocol. Cells treated with PBS were used as 100% control. Each group was performed in triplicate, repeated for 3 times. Mean values at each concentration are presented.
To further quantify the binding affinity, K9TCC-PU and K9TCC-PU-In cells were seeded in 96 well plates, fixed, and incubated with increasing concentrations of PLZ4-biotin followed by avidin-HRP. […]

The subject of the next assay is normal urothelial cells. The assay can be described thus: Whole cell bead binding assay, normal urothelial cells. Also noted: species or system human. As to conditions: peptide on OBOC beads. The protocol: Four bladder cancer cell lines including 5637 (HTB-9), SCaBER, TCCSUP (HTB-5), and T24 (HTB-4) were purchased from the American Type Culture Collection (Manassas, Va.). The isolation, characterization and maintenance of normal urothelial cells was previously described in detail (Bagai, et al., J Biol Chem, (2002) 277: 23828-23837). Normal peripheral blood mononuclear cells were prepared by using the Ficoll-Paque gradient method from peripheral blood of healthy donors. Bladder cancer tissue obtained from cystectomy was cut into pieces, digested with collagenase at 37° C. for 1-2 hours per the manufacturer's protocol, and filtered through a 40-μm strainer to make single cell suspension. Tumor cells were then isolated with Ficoll-Paque gradient method (800 g, 30 min at 4° C.). Informed consent was obtained from each patient or healthy donor before specimens were collected.
The beads were washed extensively with double-distilled water and phosphate-buffered saline (PBS) before screening. Bladder cancer cells and normal urothelial cells were detached from culture dishes with trypsin/EDTA or a Detach kit (PromoCell, Heidelberg, Germany), washed with their corresponding culture medium, resuspended at 10^6 cells/ml and incubated with OBOC beads in Petri dishes in a humidified CO2 incubator at 37° C. with shaking (60 rpm). […]

A further assay has as its system 5637 cells. Nature of the assay: Flow cytometry binding affinity on 5637 cells. Also noted: species or system human. As to conditions: PLZ4-biotin with streptavidin-PE. The protocol: All of the following steps were done on ice. 5×10^5 5637 cells were washed 3 times with 1 ml cold PBS (pH 7.4)-BSA (1%), re-suspended with 300 μl cold BSA (5%)-PBS (pH 7.4), and then incubated for 1 hour on ice. The cells were centrifuged and suspended with 50 μl PLZ4-biotin solution at 800, 400, 200, 100, 50, 25, 10, 5, 2.5, 1, 0.1, and 0 μM, and incubated for 1 hour on ice. Cells treated without PLZ4-biotin was considered as a control. After washing 6 times with 1 ml cold PBS-Tween-20 (0.05%) buffer, cells were re-suspended with 50 μl streptavidin (SA)-PE (1:500 in PBS-BSA, 1%) (1 mg/ml, Invitrogen, Carlsbad, Calif.), incubated for 1 hour on ice, washed with PBS (pH 7.4) 3 times, re-suspended with 500 μl PBS (pH 7.4), and analyzed using a Coulter Epics XL-MCL flow cytometer (Beckman Coulter, Inc.). The experiment was repeated three times. The mean value was expressed in FIG. 4.
Next, it was determined if fluorescence cell sorting could be used to identify bladder cancer cells. PLZ4 peptide conjugated to biotin through hydrophilic linkers was synthesized. Biotinylated PLZ4 was then incubated with streptavidin-PE to generate PLZ4-PE conjugate through the strong binding of biotin and streptavidin. […] The binding affinity (Kd) is around 30 μM.

In a further assay the test system is 5637 TCC cancer cells. Nature of the assay: Bead binding to 5637 cells in urine at pH 6.0. Also noted: species or system human. The following applies: urine at pH 6.0, 4 hours, 37° C. Here is the method:
The acidic environment in urine may change the 3-D structure of ligands and affect ligand binding. Here it was determined if the cancer-specific beads could bind to 5637 TCC cancer cells in urine. Cells were incubated with beads in urine at pH 6.0 for 4 hours at 37° C. 4-hour incubation was used to mimic the in vivo urine retention in patients and to permit conformational changes and protease digestion.

Assay [2] concerns cells isolated from urine specimens of patients actively treated with BCG intravesical therapy. It is filed as binding, human. The following applies: 4 consecutive patients with no evidence of bladder cancer.
For another assay, the system named is whole blood cells. Nature of the assay: Whole cell bead binding assay, whole blood cells. Also on record: species or system human. As to conditions: peptide on beads.
The next assay relates to fibroblasts. The assay can be described thus: Whole cell bead binding assay, fibroblasts. As to conditions: peptide on beads.
Assay [3] relates to cancer cells from canine bladder TCC clinical specimen. Nature of the assay: Binding to canine bladder TCC clinical specimen cells.

Consider “cQDGRMGFc ([dC]QDGRMGF[dC]; disulfide 1-9 (inferred)) [PLZ4, bladder cancer-specific ligand peptide]”, for which the “binding to cells from the normal specimen of the same bladder” value in [1] is “not to the cells from the normal specimen”. Further, the Kd is 21.3 µM with K9TCC-PU and roughly 30 µM with 5637 cells. Also, in the assay on normal urothelial cells, the “binding to normal urothelial cells” value is “did not bind”. Further, the “binding to 5637 cells in urine” value with 5637 TCC cancer cells was “still able to bind cells in urine”. Moreover, the “binding to cells from urine of patients actively treated with BCG” value in assay [2] is reported as “did not bind”. In addition, the “binding to whole blood cells” value in the assay on whole blood cells is given as “did not bind”. In addition, the binding to fibroblasts result in the assay with fibroblasts is listed as “did not bind”. In addition, the “binding to primary canine bladder cancer cells from a clinical specimen” value in assay [3] was “could bind to primary canine bladder cancer cells; also recorded: could bind to cancer cells from one canine bladder TCC clinical specimen”.

These data come from US10335365B2, “Bladder cancer specific ligand peptides” (The Regents of the University of California, priority 2009, dated 2019).
